Source: patent US20210196793A1, “Pharmaceutical Combination Comprising Epidermal Growth Factor and Secretagogue Peptide GHRP6 for the Restoration of Brain Damage” (CENTRO DE INGENIERÍA GENÉTICA Y BIOTECNOLOGÍA, priority 2018, published 2021)

Test system: patients with Amyotrophic Lateral Sclerosis
Experiment: Patients with Amyotrophic Lateral Sclerosis, ALSFRS-R functional scale
Type: in vivo, human
Details: for ALSFRS-R before treatment: baseline
Protocol: Forty patients with definite diagnosis of Amyotrophic Lateral Sclerosis were treated with EGF 0.6 μg/kg of body weight, and GHRP6 60 μg/kg of body weight, intravenously, every other day, during 6 months, together with Rilutek® (Riluzole). Previously, these patients were stratified according to the origin of the disease, spinal (n=25) or bulbar (n=15). Another group of 30 patients with definite diagnosis of Amyotrophic Lateral Sclerosis, also stratified according to origin, spinal (n=21) or bulbar (n=9), were treated only with Rilutek®.
Before the beginning and after the end of the trial, all patients were evaluated using the functional scale for Amyotrophic Lateral Sclerosis (ALSFRS-R). The ALSFRS-R scale is usually used for the neurological and functional evaluation of patients with said disease. This scale includes various functional items, such as those related to language, salivation, swallowing, the ability to write, handling eating utensils, dressing and sanitizing, turning in bed, climbing stairs, and breathing.

Nc1nc2ccc(OC(F)(F)F)cc2s1 [Rilutek ®, Riluzole]
clinical improvement (salivation, swallowing, breathing, dysarthria) (after 6 months of treatment, spinal and bulbar onset): None of the latter was observed | ALSFRS-R after the treatment (bulbar origin, after 6 months of treatment): 33.1 ± 8.32 | ALSFRS-R before treatment (bulbar origin): 35.1 ± 6.2 | ALSFRS-R after the treatment (spinal origin, after 6 months of treatment): 38.2 ± 3.34 | ALSFRS-R before treatment (spinal origin): 38.7 ± 4.4
